Consider two compounds from patent US8802894B2, “Process for the preparation of aqueous solutions of methylglycine-N,N-diacetic acid trialkali metal salts” (BASF SE, priority 2012, dated 2014).

A short description of data set [1]: solubility limit / achievable concentration in water. The format is physicochemical.
A short description of data set [2]: saturation concentration of aqueous solutions, L-enantiomer versus D,L-racemate. Type of data set: physicochemical. The following applies: aqueous solution. From the text:
The L-enantiomer of α-alanine is available at low cost and leads, through Strecker synthesis, as a result of reaction with hydrocyanic acid and formaldehyde in aqueous solution, to L-α-alanine-N,N-diacetonitrile, and saponification thereof with a base leads to aqueous solutions which not only have a higher saturation concentration of the L-enantiomer compared to the D,L-racemate of the MGDA trialkali metal salts, but which also produce a readily crystallizing solid by means of crystallization.

As for `C[C@H](N)C(=O)O` [α-alanine], the solubility limit entry in data set [1] is given as “ca. 18 % by weight”. In the case of “methylglycine-N,N-diacetic acid trialkali metal salt [L-MGDA trialkali metal salt]”, the “solubility compared to the racemate” value in data set [2] is on record as “higher”.
